Consider three compounds from patent publication US20060009519A1, “Antifeeding method against insects” (SUMITOMO CHEMICAL COMPANY, LIMITED, priority 2004, published 2006).

The test system of assay [1] is termites (Coptotermes formosanus, workers). The assay can be described thus: Termite antifeeding test on treated filter paper (Test Example 2). Conditions: 10 mg of test compound on filter paper (33 mm in diameter); fifty termites; one week; tests repeated three times. It counts as in vivo. The method, then:
An acetone solution (1 ml) containing 10 mg of the test compound was dropped on filter paper (33 mm in diameter, Milk sediment disk 1026 produced by Toyo Roshi K.K.) and dried at room temperature overnight. The filter paper was set in a white plastic cup (35 mm in diameter) having one hole on side and one hole in bottom, wherein the diameter of the holes are about 3 mm and termites can easily go through the holes. The white plastic cup was put into the 200 ml-volume plastic cup having several holes on the bottom which was covered with gypsum in 2 cm thickness. Fifty termites (Coptotermes formosanus, workers) were put in the 200 ml-volume plastic cup and kept in the container, the bottom of which was filled with wet cotton wool. The container was covered for keeping wet therein. After one week, the filter paper was recovered, dried well at room temperature, and then the weight was measured. The decreasing ratio of the weight was calculated. The tests were repeated three times. For a reference, filter paper treated with only 1 ml of acetone was tested and the decreasing ratio of the weight was calculated in the same manner.

The test system is the same in assay [2]. The assay is described as follows: Termite antifeeding test on treated Japanese black pine wood (Test Example 1). It counts as in vivo. The settings on record: 100 termites, 3 weeks in the dark. As to the method: A designated amount (10 mg or 100 mg) of octyl gallate was dissolved in 0.3 ml of acetone and uniformly spread on a piece of Japanese black pine wood (1 cm×1 cm×2 cm) with pipette. The wood was allowed to stand overnight at room temperature, dried at 60° C. in a thermostat for 3 days, and then the weight of the wood was measured. The bottom of a 200 ml-volume plastic cup having several holes on the bottom was covered with gypsum in 2 cm thickness. The wood prepared above and 100 termites (Coptotermes formosanus, workers) were put in the plastic cup and kept in the dark for 3 weeks. For that time, cotton wool containing water was set under the plastic cup, and the gypsum was kept wet through the hole. After 3 weeks, the wood was recovered, dried at 60° C. in a thermostat for 3 days, and then the weight of the wood was measured. The decreasing ratio of the weight was calculated. For a reference, a piece of Japanese black pine wood treated with only 0.3 ml of acetone was tested and the decreasing ratio of the weight was calculated in the same manner.

Regarding `CCCCCCCCCCOC(=O)c1cc(O)c(O)c(O)c1` [Decyl gallate, decyl gallate], in assay [1], the “The decreasing ratio of the weight (%)” value is listed as 0%. On the same count and under the same terms, as for `CCCCCCCCCCCCOC(=O)c1cc(O)c(O)c(O)c1` [Dodecyl gallate], the figure is 1.13%.

`CCCCCCCCOC(=O)c1cc(O)c(O)c(O)c1` [octyl gallate, Octyl gallate]: the results for the “The decreasing ratio of the weight (%)” value in assay [2] (10 mg of octyl gallate on Japanese black pine wood (1 cm×1 cm×2 cm)) and in assay [2] (100 mg of octyl gallate on Japanese black pine wood (1 cm×1 cm×2 cm)) were 2.4% and 0.9%, respectively.
